Experimental data: US20110306573A1, “NUCLEOSIDE DERIVATIVES AS INHIBITORS OF VIRAL POLYMERASES” (priority 2008, published 2011)
Structures can show the parent of a compound that is named as a salt.

What follows are molecules tested on subgenomic HCV Replicon in HuH-7 hepatoma cells (assay: Assay for inhibition of HCV RNA replication (subgenomic replicon, in situ ribonuclease protection SPA)). Conditions: Hepatitis C virus, Huh-7.
Format: cell-based, Hepatitis C Virus
Protocol: The compounds of the present invention were also evaluated for their ability to affect the replication of Hepatitis C Virus RNA in cultured hepatoma (HuH-7) cells containing a subgenomic HCV Replicon. The details of the assay are described below. This Replicon assay is a modification of that described in V. Lohmann, F. Korner, J-O. Koch, U. Herian, L. Theilmann, and R. Bartenschlager, “Replication of a Sub-genomic Hepatitis C Virus RNAs in a Hepatoma Cell Line,” Science 285:110 (1999).
The assay was an in situ Ribonuclease protection, Scintillation Proximity based-plate assay (SPA). 10,000-40,000 cells were plated in 100-200 μL of media containing 0.8 mg/mL G418 in 96-well cytostar plates (Amersham). Compounds were added to cells at various concentrations up to 100 μM in 1% DMSO at time 0 to 18 h and then cultured for 24-96 h. Cells were fixed (20 min, 10% formalin), permeabilized (20 min, 0.25% Triton X-100/PBS) and hybridized (overnight, 50° C.) with a single-stranded ^33P RNA probe complementary to the (+) strand NS5B (or other genes) contained in the RNA viral genome. Cells were washed, treated with RNAse, washed, heated to 65° C. and counted in a Top-Count Inhibition of replication was read as a decrease in counts per minute (cpm).
Human HuH-7 hepatoma cells, which were selected to contain a subgenomic replicon, carry a cytoplasmic RNA consisting of an HCV 5′ non-translated region (NTR), a neomycin selectable marker, an EMCV IRES (internal ribosome entry site), and HCV non-structural proteins NS3 through NS5B, followed by the 3′ NTR.
With `CCOC(=O)[C@H](C)NP(=O)(OC[C@H]1O[C@@H](n2cc(-c3ccn[nH]3)c3c(N)ncnc32)[C@](C)(O)[C@@H]1O)Oc1ccccc1` (stereo in doubt) [Compound 29, Ethyl 2-{[(R)-({(2R,3S,4R,5R)-5-[4-amino-5-(1H-pyrazol-5-yl)-7H-pyrrolo[2,3-d]pyrimidin-7-yl]-3,4-dihydroxy-4-methyltetrahydrofuran-2-yl}methoxy)(phenoxy)phosphoryl]amino}propanoate] the EC50 was less than 20 µM.
Work on `COc1nc(-c2cn([C@@H]3O[C@H](CO)[C@@H](O)[C@@]3(C)O)c3ncnc(N)c23)cs1` [Compound 4, 5-(2-methoxy-1,3-thiazol-4-yl)-7-(2-C-methyl-β-D-ribofuranosyl)-7H-pyrrolo[2,3-d]pyrimidin-4-amine trifluoroacetate] yielded an EC50 greater than 50 µM.
With `CCOC(=O)[C@H](C)NP(=O)(OC[C@H]1O[C@@H](n2cc(-c3ncco3)c3c(N)ncnc32)[C@](C)(O)[C@@H]1O)Oc1ccccc1` (stereo in doubt) [Compound 30, Ethyl 2-{[(R)-({(2R,3S,4R,5R)-5-[4-amino-5-(1,3-oxazol-2-yl)-7H-pyrrolo[2,3-d]pyrimidin-7-yl]-3,4-dihydroxy-4-methyltetrahydrofuran-2-yl}methoxy)(phenoxy)phosphoryl]amino}propanoate] the EC50 was less than 20 µM.
Molecule `Cn1cc(-c2cn([C@@H]3O[C@H](CO)[C@@H](O)[C@@]3(C)O)c3ncnc(N)c23)nn1` [Compound 8, 7-(2-C-methyl-β-D-ribofuranosyl)-5-(1-methyl-1H-1,2,3-triazol-4-yl)-7H-pyrrolo[2,3-d]pyrimidin-4-amine trifluoroacetate] has an EC50 of 20 to 50 µM.

Same assay, conditions: Hepatitis C virus; HuH-7 cells containing a subgenomic HCV Replicon, compounds up to 100 μM in 1% DMSO, cultured 24-96 h; read-out: EC50
With `C[C@@]1(O)[C@H](O)[C@@H](CO)O[C@H]1n1cc(-c2ccn[nH]2)c2c(N)ncnc21` [Compound 5, 7-(2-C-methyl-β-D-ribofuranosyl)-5-(1H-pyrazol-5-yl)-7H-pyrrolo[2,3-d]pyrimidin-4-amine] the EC50 was 20 to 50 µM.
`C[C@@]1(F)[C@H](O)[C@@H](CO)O[C@H]1n1cc(-c2ncon2)c2c(N)ncnc21` [Compound 23, 7-(2-deoxy-2-fluoro-2-methyl-β-D-ribofuranosyl)-5-(1,2,4-oxadiazol-3-yl)-7H-pyrrolo[2,3-d]pyrimidin-4-amine] was tested, and the EC50 was 20 to 50 µM.
`C[C@@]1(O)[C@H](O)[C@@H](CO)O[C@H]1n1cc(-c2cccs2)c2c(N)ncnc21` [Compound 9, 7-(2-C-methyl-β-D-ribofuranosyl)-5-(2-thienyl)-7H-pyrrolo[2,3-d]pyrimidin-4-amine] gave an EC50 of less than 20 µM.
Molecule `C[C@@]1(F)[C@H](O)[C@@H](CO)O[C@H]1n1cc(-c2ncco2)c2c(N)ncnc21` [Compound 22, 7-(2-deoxy-2-fluoro-2-methyl-β-D-ribofuranosyl)-5-(1,3-oxazol-2-yl)-7H-pyrrolo[2,3-d]pyrimidin-4-amine] has an EC50 of 20 to 50 µM.
For `C[C@@]1(O)[C@H](O)[C@@H](CO)O[C@H]1n1cc(-c2ncco2)c2c(N)ncnc21` [Compound 2, 7-(2-C-methyl-β-D-ribofuranosyl)-5-(1,3-oxazol-2-yl)-7H-pyrrolo[2,3-d]pyrimidin-4-amine], the EC50 was less than 20 µM.
`COc1ccc(-c2cn([C@@H]3O[C@H](CO)[C@@H](O)[C@@]3(C)O)c3ncnc(N)c23)cn1` [Compound 24, 7-(2-C-methyl-β-D-ribofuranosyl)-5-(6-methoxypyridin-3-yl)-7H-pyrrolo[2,3-d]pyrimidin-4-amine] showed an EC50 greater than 50 µM.
In the case of `C[C@@]1(O)[C@H](O)[C@@H](CO)O[C@H]1n1cc(-c2ncon2)c2c(N)ncnc21` [Compound 7, 7-(2-C-methyl-β-D-ribofuranosyl)-5-(1,2,4-oxadiazol-3-yl)-7H-pyrrolo[2,3-d]pyrimidin-4-amine], the EC50 is reported as less than 20 µM.
In the case of `C[C@@]1(O)[C@H](O)[C@@H](CO)O[C@H]1n1cc(-c2cn[nH]c2)c2c(N)ncnc21` [Compound 6, 7-(2-C-methyl-β-D-ribofuranosyl)-5-(1H-pyrazol-4-yl)-7H-pyrrolo[2,3-d]pyrimidin-4-amine], the EC50 is reported as 20 to 50 µM.
With `C[C@@]1(O)[C@H](O)[C@@H](CO)O[C@H]1n1cc(-c2nnco2)c2c(N)ncnc21` [Compound 27, 7-(2-C-methyl-β-D-ribofuranosyl)-5-(1,3,4-oxadiazol-2-yl)-7H-pyrrolo[2,3-d]pyrimidin-4-amine] the EC50 was less than 20 µM.
`C[C@@]1(O)[C@H](O)[C@@H](CO)O[C@H]1n1cc(-c2ncccn2)c2c(N)ncnc21` [Compound 3, 7-(2-C-methyl-β-D-ribofuranosyl)-5-pyrimidin-2-yl-7H-pyrrolo[2,3-d]pyrimidin-4-amine] was tested, and the EC50 was greater than 50 µM.
Molecule `C[C@@]1(F)[C@H](O)[C@@H](CO)O[C@H]1n1cc(-c2ccn[nH]2)c2c(N)ncnc21` [Compound 21, 7-(2-deoxy-2-fluoro-2-methyl-β-D-ribofuranosyl)-5-(1H-pyrazol-5-yl)-7H-pyrrolo[2,3-d]pyrimidin-4-amine] has an EC50 of 20 to 50 µM.
With `C[C@@]1(O)[C@H](O)[C@@H](CO)O[C@H]1n1nc(-c2cc[nH]n2)c2c(N)ncnc21` [Compound 25, 1-(2-C-methyl-β-D-ribofuranosyl)-3-(1H-pyrazol-3-yl)-1H-pyrazolo[3,4-d]pyrimidin-4-amine] the EC50 was less than 20 µM.

Same assay, conditions: HuH-7 cells containing a subgenomic HCV Replicon, compounds up to 100 μM in 1% DMSO, cultured 24-96 h; read-out: EC50
Molecule “7-(2-C-methyl-β-D-ribofuranosyl)-5-(1-methyl-1H-tetrazol-5-yl)-7H-pyrrolo[2,3-d]pyrimidin-4-amine (A) and 7-(2-C-methyl-β-D-ribofuranosyl)-5-(2-methyl-2H-tetrazol-5-yl)-7H-pyrrolo[2,3-d]pyrimidin-4-amine (B) [Compound 1]” has an EC50 of less than 20 µM.

Each molecule was assayed against T1, HCV NS5B polymerase (Hepatitis C virus genotype 1b, UniProt P26663) (assay: Assay for inhibition of HCV NS5B polymerase (RdRp, 3H-UTP incorporation on heteromeric RNA template)). Conditions: heterogeneous template dCoh, 2 nM DC55-lb.BK or 10 nM DC55-2b.2, NTPs 1 uM, room temperature 2 hours.
T1 construct: RNA-dependent RNA polymerase (NS5B) of the hepatitis C virus (HCV)
T1 sequence (P26663 2420-2955): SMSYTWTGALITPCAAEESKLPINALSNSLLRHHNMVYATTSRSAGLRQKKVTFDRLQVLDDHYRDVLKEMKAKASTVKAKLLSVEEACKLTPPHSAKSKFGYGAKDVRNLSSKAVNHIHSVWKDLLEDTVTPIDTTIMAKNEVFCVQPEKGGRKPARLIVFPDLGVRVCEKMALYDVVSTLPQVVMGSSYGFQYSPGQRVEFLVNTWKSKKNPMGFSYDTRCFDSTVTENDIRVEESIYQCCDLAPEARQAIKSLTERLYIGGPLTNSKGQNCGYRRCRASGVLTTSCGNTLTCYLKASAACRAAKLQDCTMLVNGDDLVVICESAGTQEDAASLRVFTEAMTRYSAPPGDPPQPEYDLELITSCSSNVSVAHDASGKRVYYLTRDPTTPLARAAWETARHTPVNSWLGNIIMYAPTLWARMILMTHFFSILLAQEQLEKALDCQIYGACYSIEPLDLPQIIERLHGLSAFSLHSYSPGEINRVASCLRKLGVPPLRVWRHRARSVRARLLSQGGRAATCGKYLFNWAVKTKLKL
Format: biochemical
Protocol: The effectiveness of the compounds of the present invention as inhibitors of HCV NS5B RNA-dependent RNA polymerase (RdRp) was measured in the following assay.
This assay was used to measure the ability of the nucleoside derivatives of the present invention to inhibit the enzymatic activity of the RNA-dependent RNA polymerase (NS5B) of the hepatitis C virus (HCV) on a heteromeric RNA template.
Assay Buffer Conditions: (52.5 μL-total/reaction)
20 nM heterogeneous template dCoh
2.5 μl/reaction inhibitor compound in H2O
The compounds were tested at various concentrations up to 100 μM final concentration. Nucleoside derivatives were pipetted into wells of a 96-well plate. The enzyme diluted in the reaction buffer was pipetted into the wells and incubated at room temperature for 10 minutes; then the template dCoh was added and incubated for 10 minutes at room temperature. The reaction was initiated by addition of a mixture of nucleotide triphosphates (NTP's), including the radiolabeled UTP, and allowed to proceed at room temperature for 2 hours. Blank samples were done omitting the dCoh template. The reaction was quenched by addition of 50 ul TCA 20% (trichloroacetic acid)/NaPPi 20 mM and the plates were put in ice for 5 minutes. Then, the mixtures were filtered onto Unifilter GF/B 96-well plates (PerkinElmer), washed with TCA 2.5%. 50 ul/well of scintillator solution (Microscint 20, PerkinElmer) were added and the plates were counted in a scintillator counter.
The percentage of inhibition was calculated according to the following equation:
% Inhibition=[1−(cpm in test reaction−cpm in blank)/(cpm in control reaction−cpm in blank)]×100.
With `Cn1cc(-c2cn([C@@H]3O[C@H](COP(=O)(O)OP(=O)(O)OP(=O)(O)O)[C@@H](O)[C@@]3(C)O)c3ncnc(N)c23)nn1` [Compound 17, 7-(2-C-methyl-5-triphospho-β-D-ribofuranosyl)-5-(1-methyl-1H-1,2,3-triazol-4-yl)-7H-pyrrolo[2,3-d]pyrimidin-4-amine] the IC50 was less than 50 µM.
In the case of `C[C@@]1(O)[C@H](O)[C@@H](COP(=O)(O)OP(=O)(O)OP(=O)(O)O)O[C@H]1n1cc(-c2cn[nH]c2)c2c(N)ncnc21` [Compound 15, 7-(2-C-methyl-5-triphospho-β-D-ribofuranosyl)-5-(1H-pyrazol-4-yl)-7H-pyrrolo[2,3-d]pyrimidin-4-amine], the IC50 is reported as less than 50 µM.
`C[C@@]1(O)[C@H](O)[C@@H](COP(=O)(O)OP(=O)(O)OP(=O)(O)O)O[C@H]1n1cc(-c2ncon2)c2c(N)ncnc21` [Compound 16, 7-(2-C-methyl-5-triphospho-β-D-ribofuranosyl)-5-(1,2,4-oxadiazol-3-yl)-7H-pyrrolo[2,3-d]pyrimidin-4-amine] gave an IC50 of less than 1 µM.
`C[C@@]1(O)[C@H](O)[C@@H](COP(=O)(O)OP(=O)(O)OP(=O)(O)O)O[C@H]1n1nc(-c2cc[nH]n2)c2c(N)ncnc21` [Compound 26, 1-[5-O-(hydroxy{[hydroxy(phosphonooxy)phosphoryl]oxy}phosphoryl)-2-C-methyl-b-D-ribofuranosyl]-3-(1H-pyrazol-3-yl)-1H-pyrazolo[3,4-d]pyrimidin-4-amine] gave an IC50 of less than 50 µM.
`C[C@@]1(O)[C@H](O)[C@@H](COP(=O)(O)OP(=O)(O)OP(=O)(O)O)O[C@H]1n1cc(-c2nnco2)c2c(N)ncnc21` [Compound 28, 7-(2-C-methyl-5-triphospho-β-D-ribofuranosyl)-5-(1,3,4-oxadiazol-2-yl)-7H-pyrrolo[2,3-d]pyrimidin-4-amine] gave an IC50 of less than 50 µM.
`C[C@@]1(F)[C@H](O)[C@@H](COP(=O)(O)OP(=O)(O)OP(=O)(O)O)O[C@H]1n1cc(-c2ncon2)c2c(N)ncnc21` [Compound 18, 7-(2-deoxy-2-fluoro-2-methyl-5-triphospho-β-D-ribofuranosyl)-5-(1,2,4-oxadiazol-3-yl)-7H-pyrrolo[2,3-d]pyrimidin-4-amine] was tested, and the IC50 was less than 1 µM.
